The experiment relates to BDF1 mice, M5076 sarcoma ip, median survival T/C. The experiment in a line: NCI In Vivo Anticancer Drug Screen. Data for tumor model Sarcoma M5076 (intraperitoneal) in B6D2F1 (BDF1) mice. As to conditions: endpoint: median survival time, higher = longer survival. On the procedure: The antitumor activity of compounds was measured in mice bearing transplantable tumors. Survival or tumor size were measured and the results are expressed as the measurement made in the treated group (T) divided by the measurement made in the vehicle treated control group (C). The tumor model used in this assay is Sarcoma M5076 (intraperitoneal) in B6D2F1 (BDF1) mice

The mark [1] stands for this setting: dose: 0.5 mg/kg/injection, schedule: Q04DX005 (ip), vehicle: saline.
[2] abbreviates: dose: 1.0 mg/kg/injection, schedule: Q04DX005 (ip), vehicle: saline.

Where “and” joins values, the source holds several entries; their conditions need not be identical. Equal values may be shown once. Toxic doses and inconclusive results are not listed.

With `CCC/C=C/C=C/C(=O)OC1C(C)C2(O)C3C=C(C)C(=O)C3CC(COC(C)=O)=CC2C2C(C)(C)C12OC(=O)C(C)C` (configuration not stated), the T/C reads like this: (dose: 0.38 mg/kg/injection, schedule: Q01DX009 (ip), vehicle: saline + alcohol) 110 % of control; (dose: 0.75 mg/kg/injection, schedule: Q01DX009 (ip), vehicle: saline + alcohol) 103 % of control; (dose: 1.5 mg/kg/injection, schedule: Q01DX009 (ip), vehicle: saline + alcohol) 110 % of control; (dose: 3.0 mg/kg/injection, schedule: Q01DX009 (ip), vehicle: saline + alcohol) 114 % of control; (dose: 6.0 mg/kg/injection, schedule: Q01DX009 (ip), vehicle: saline + alcohol) 115 % of control.

With `Cc1c2ccccc2c(C)c2c1cc(C(=O)O)c1ccccc12`, the T/C (dose: 25.0 mg/kg/injection, schedule: Q04DX004 (ip), vehicle: sodium bicarbonate) was 109 % of control; the T/C (dose: 100.0 mg/kg/injection, schedule: Q04DX004 (ip), vehicle: sodium bicarbonate) was 110 % of control; the T/C (dose: 200.0 mg/kg/injection, schedule: Q04DX004 (ip), vehicle: sodium bicarbonate) was 116 % of control; the T/C (dose: 400.0 mg/kg/injection, schedule: Q04DX004 (ip), vehicle: sodium bicarbonate) is 110 % of control.

For the compound `CCC1(O)CC2CN(CCc3c([nH]c4ccccc34)C(C(=O)OC)(c3cc4c(cc3OC)N(C)C3C(O)(C(N)=O)C(O)C5(CC)C=CCN6CCC43C65)C2)C1` (configuration not stated) (tested in a mixture with another compound), the T/C by setting is: under setting [1], 208 % of control; under setting [2], 208 % of control.

With `Cc1nc(C(Cl)(Cl)Cl)[nH]c(=O)c1SCCO`, the T/C is, setting by setting: (dose: 50.0 mg/kg/injection, schedule: Q04DX004 (ip), vehicle: distilled water + alcohol) 101 % of control; (dose: 100.0 mg/kg/injection, schedule: Q04DX004 (ip), vehicle: distilled water + alcohol) 93 % of control; (dose: 200.0 mg/kg/injection, schedule: Q04DX004 (ip), vehicle: distilled water + alcohol) 94 % of control; (dose: 400.0 mg/kg/injection, schedule: Q04DX004 (ip), vehicle: distilled water + alcohol) 96 % of control.

In the case of `COC(=O)NC1C(C)OC(OC2C/C=C(/C)C3C=CC4C(OC5CC(OC6CCC(OC7CC(O)C(OC8CCC(O)C(C)O8)C(C)O7)C(C)O6)C(OC(C)=O)C(C)O5)C(C)CC(C)C4C3(C)/C(O)=C3/C(=O)OC4(CC(C=O)=CC(O)C4/C=C\2C)C3=O)CC1(C)[N+](=O)[O-]` (configuration not stated), the T/C reads like this: (dose: 2.5 mg/kg/injection, schedule: Q04DX004 (ip), vehicle: water) 107 % of control; (dose: 5.0 mg/kg/injection, schedule: Q04DX004 (ip), vehicle: water) 96 % of control; (dose: 10.0 mg/kg/injection, schedule: Q04DX004 (ip), vehicle: water) 103 % of control.

For the compound `C[C@@]12C(=O)OC(=O)[C@]1(C)[C@H]1CC[C@@H]2O1`, the T/C (dose: 0.25 mg/kg/injection, schedule: Q01DX009 (ip), vehicle: acetone) was 115 % of control; the T/C (dose: 0.5 mg/kg/injection, schedule: Q01DX009 (ip), vehicle: acetone) is 120 % of control; the T/C (dose: 62.5 micrograms/kg/injection, schedule: Q01DX009 (ip), vehicle: acetone) is 113 % of control; the T/C (dose: 250.0 micrograms/kg/injection, schedule: Q01DX009 (ip), vehicle: acetone) was 115 % of control; the T/C (dose: 1000.0 micrograms/kg/injection, schedule: Q01DX009 (ip), vehicle: acetone) is 150 % of control.

In the case of `Nc1n[nH]c2ccccc12`, the T/C is 112 % of control (dose: 50.0 mg/kg/injection, schedule: Q04DX004 (ip), vehicle: acid diluted with saline); 113 % of control (dose: 100.0 mg/kg/injection, schedule: Q04DX004 (ip), vehicle: acid diluted with saline); 112 % of control (dose: 200.0 mg/kg/injection, schedule: Q04DX004 (ip), vehicle: acid diluted with saline).

`O=c1n(CC2CO2)c(=O)n(CC2CO2)c(=O)n1CC1CO1` (configuration not stated): the T/C reads like this: (dose: 13.0 mg/kg/injection, schedule: Q04DX005 (ip), vehicle: saline) 191 % of control; (dose: 21.6 mg/kg/injection, schedule: Q04DX005 (ip), vehicle: saline) 270 % of control; (dose: 36.0 mg/kg/injection, schedule: Q04DX005 (ip), vehicle: saline) 377 % of control; (dose: 60.0 mg/kg/injection, schedule: Q04DX005 (ip), vehicle: saline) 377 % of control.

Take `O=NN(CCCl)C(=O)NC1CCCCC1`: the T/C is, setting by setting: (dose: 6.0 mg/kg/injection, schedule: Q01DX005 (sc), vehicle: other) 256 % of control; (dose: 12.0 mg/kg/injection, schedule: Q01DX005 (sc), vehicle: other) 256 % of control.

In the case of `CN(C)CCN1C(=O)c2cccc3cc(N)cc(c23)C1=O`, the T/C runs as follows: (dose: 4.5 mg/kg/injection, schedule: Q04DX004 (ip), vehicle: acid diluted with saline) 109 % of control; (dose: 9.0 mg/kg/injection, schedule: Q04DX004 (ip), vehicle: acid diluted with saline) 107 % of control; (dose: 18.0 mg/kg/injection, schedule: Q04DX004 (ip), vehicle: acid diluted with saline) 115 % of control.

For `COc1cc2c(cc1OC)[C@@H]1C(=O)c3ccc4c(c3O[C@@H]1CO2)C[C@H](C(C)C)O4`, the T/C is, setting by setting: (dose: 1.56 mg/kg/injection, schedule: Q01DX009 (ip), vehicle: Klucel (hydroxypropylcellulose) (HPC)) 112 % of control and 114 % of control; (dose: 3.12 mg/kg/injection, schedule: Q01DX009 (ip), vehicle: Klucel (hydroxypropylcellulose) (HPC)) 110 % of control; (dose: 6.25 mg/kg/injection, schedule: Q01DX009 (ip), vehicle: Klucel (hydroxypropylcellulose) (HPC)) 122 % of control; (dose: 12.5 mg/kg/injection, schedule: Q01DX009 (ip), vehicle: Klucel (hydroxypropylcellulose) (HPC)) 124 % of control.

In the case of `CC1=C[P+](c2ccccc2)(c2ccccc2)C=C(c2ccccc2)O1`, the T/C reads like this: (dose: 1.25 mg/kg/injection, schedule: Q04DX004 (ip), vehicle: saline + alcohol) 99 % of control; (dose: 2.5 mg/kg/injection, schedule: Q04DX004 (ip), vehicle: saline + alcohol) 107 % of control; (dose: 5.0 mg/kg/injection, schedule: Q04DX004 (ip), vehicle: saline + alcohol) 118 % of control.

Regarding `Nc1nc2c(c(=O)[nH]1)N(C=O)C(CNc1ccc(C(=O)N[C@@H](CCC(=O)O)C(=O)O)cc1)CN2` (some centres not stated), the T/C by setting is: (dose: 50.0 mg/kg/injection, schedule: Q01DX009 (ip), vehicle: sodium bicarbonate) 96 % of control; (dose: 100.0 mg/kg/injection, schedule: Q01DX009 (ip), vehicle: sodium bicarbonate) 86 % of control; (dose: 200.0 mg/kg/injection, schedule: Q01DX009 (ip), vehicle: sodium bicarbonate) 94 % of control.

`O=C1c2c(O)ccc(O)c2C(=O)c2c(NCCNCCO)ccc(NCCNCCO)c21`: the T/C by setting is: (dose: 0.25 mg/kg/injection, schedule: Q04DX004 (ip), vehicle: water) 236 % of control; (dose: 0.5 mg/kg/injection, schedule: Q04DX004 (ip), vehicle: water) 260 % of control; under setting [1], 401 % of control; (dose: 1.0 mg/kg/injection, schedule: Q04DX004 (ip), vehicle: water) 260 % of control; under setting [2], 321 % of control; (dose: 2.0 mg/kg/injection, schedule: Q04DX004 (ip), vehicle: water) 260 % of control. The T/C runs as follows: (dose: 2.0 mg/kg/injection, schedule: Q04DX005 (ip), vehicle: saline) 99 % of control; (dose: 4.0 mg/kg/injection, schedule: Q04DX004 (ip), vehicle: water) 100 % of control.

Regarding `CC(=O)C[n+]1ccc(C)cc1Sc1ccccc1C`, the T/C (dose: 12.5 mg/kg/injection, schedule: Q04DX004 (ip), vehicle: saline with Tween-80) is 104 % of control; the T/C (dose: 25.0 mg/kg/injection, schedule: Q04DX004 (ip), vehicle: saline with Tween-80) is 98 % of control; the T/C (dose: 50.0 mg/kg/injection, schedule: Q04DX004 (ip), vehicle: saline with Tween-80) was 92 % of control; the T/C (dose: 100.0 mg/kg/injection, schedule: Q04DX004 (ip), vehicle: saline with Tween-80) was 94 % of control.

As for `O=C(O)C1(C(=O)O)CCC1.[NH2-].[NH2-].[Pt+2]`, the T/C was 186 % of control (dose: 15.6 mg/kg/injection, schedule: Q04DX005 (ip), vehicle: water); 182 % of control (dose: 25.92 mg/kg/injection, schedule: Q04DX005 (ip), vehicle: water); 194 % of control (dose: 43.2 mg/kg/injection, schedule: Q04DX005 (ip), vehicle: water); 220 % of control (dose: 72.0 mg/kg/injection, schedule: Q04DX005 (ip), vehicle: water); 275 % of control (dose: 120.0 mg/kg/injection, schedule: Q04DX005 (ip), vehicle: water).

Values taken from PubChem BioAssay AID286 (DTP/NCI, 2004).
